{"source": "patent US11939352B2", "about": "“Potent aromatase inhibitors through fungal transformation of anti-cancer drug testolactone: an approach towards treatment of breast cancer” (priority 2021, dated 2024)"}
{"target": "T1, human placental microsomal aromatase (Homo sapiens, UniProt P11511)", "T1 construct": "was determined in a pool of human fresh placental microsomes in vitro; from tissue; host or cells: human placenta (pooled fresh microsomes)", "T1 sequence (P11511 1-503)": "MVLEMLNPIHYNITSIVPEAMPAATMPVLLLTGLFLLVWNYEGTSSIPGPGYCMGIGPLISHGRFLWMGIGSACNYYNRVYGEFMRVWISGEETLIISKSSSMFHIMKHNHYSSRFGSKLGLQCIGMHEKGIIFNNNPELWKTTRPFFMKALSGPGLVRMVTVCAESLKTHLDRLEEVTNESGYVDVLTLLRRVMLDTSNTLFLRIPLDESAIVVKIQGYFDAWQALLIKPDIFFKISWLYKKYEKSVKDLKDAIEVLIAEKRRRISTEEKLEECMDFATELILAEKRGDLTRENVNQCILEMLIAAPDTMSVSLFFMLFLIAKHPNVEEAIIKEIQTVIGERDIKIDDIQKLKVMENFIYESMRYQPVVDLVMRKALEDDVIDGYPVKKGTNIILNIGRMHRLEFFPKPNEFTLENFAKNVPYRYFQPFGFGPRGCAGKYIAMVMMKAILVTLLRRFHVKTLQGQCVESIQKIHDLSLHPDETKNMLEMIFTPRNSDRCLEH", "assay": "Human placental aromatase inhibition assay", "type": "biochemical", "units": {"IC50": "µM"}}
{"smiles": "C[C@]12C=CC(=O)C=C1CC[C@@H]1[C@@H]2CC[C@]2(C)OC(=O)CC[C@@H]12", "note": "[Compound 1, 3-oxo-13,17-secoandrosta-1,4-dieno-17,13α-lactone, reference compound]", "IC50": "0.716 ± 0.031"}
{"smiles": "C[C@]12C=CC(=O)C[C@H]1C[C@H](O)[C@@H]1[C@@H]2CC[C@]2(C)OC(=O)CC[C@@H]12", "note": "[Compound 2, 7β-hydroxy-3-oxo-13,17-seco-5β-androsta-1-eno-17,13α-lactone]", "IC50": "0.00863 ± 0.0004"}
{"smiles": "C[C@]12CC[C@@H](O)C[C@H]1CC[C@@H]1[C@@H]2[C@@H](O)C[C@]2(C)OC(=O)CC[C@@H]12", "note": "[Compound 3, 3α,11β-dihydroxy-13,17-seco-5β-androsta-17,13α-lactone]", "IC50": "0.00923 ± 0.0013"}
{"smiles": "C[C@]12CC[C@H]3[C@@H](CC[C@]45O[C@H]4[C@@H](O)C=C[C@]35C)[C@@H]1CCC(=O)O2", "note": "[Compound 4, 4β,5β-epoxy-3β-hydroxy-13,17-secoandrosta-1-eno-17,13α-lactone]", "IC50": "10.4 ± 0.5"}
{"smiles": "C[C@]12CC[C@H]3[C@@H](CC[C@]45O[C@H]4[C@H](O)C=C[C@]35C)[C@@H]1CCC(=O)O2", "note": "[Compound 5, 4β,5β-epoxy-3α-hydroxy-13,17-secoandrosta-1-eno-17,13α-lactone]", "IC50": "0.82 ± 0.059"}
